Target: Cannabinoid receptor 1 (Taeniopygia guttata, UniProt P56971)
Sequence (P56971 whole entry): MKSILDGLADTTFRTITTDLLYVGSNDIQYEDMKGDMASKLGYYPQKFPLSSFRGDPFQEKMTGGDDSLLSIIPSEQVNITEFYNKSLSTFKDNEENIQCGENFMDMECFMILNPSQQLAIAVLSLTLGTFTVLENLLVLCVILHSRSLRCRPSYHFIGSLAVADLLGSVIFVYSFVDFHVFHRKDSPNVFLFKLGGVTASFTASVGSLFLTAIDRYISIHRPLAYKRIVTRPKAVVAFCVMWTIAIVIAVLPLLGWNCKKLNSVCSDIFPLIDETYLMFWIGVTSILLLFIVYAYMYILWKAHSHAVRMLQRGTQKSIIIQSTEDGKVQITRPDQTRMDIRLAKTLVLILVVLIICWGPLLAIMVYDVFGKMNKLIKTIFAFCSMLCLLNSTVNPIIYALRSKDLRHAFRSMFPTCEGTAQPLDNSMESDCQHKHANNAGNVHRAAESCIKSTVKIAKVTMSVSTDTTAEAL

SMILES	Ki [nM]
CCCCCCC(C)(C)c1ccc([C@H]2C[C@@H](O)CC[C@@H]2CCCO)c(O)c1 [CP-56667 [(+)-AC],XV]	5.92
CC(=O)Oc1cc(OC(C)CCCc2ccccc2)cc2c1C1CC(O)CCC1C(C)N2 (configuration not stated) [NSC_107822]	8.24
CCCCC/C=C\C/C=C\C/C=C\C/C=C\CCCCCC(=O)NCCO	2790
Cc1c(C(=O)c2cccc3ccccc23)c2cccc3c2n1[C@H](CN1CCOCC1)CO3 [WIN55212-2]	63.3
CCCCCCC(C)(C)c1cc(O)c2c(c1)OC(C)(C)[C@@H]1CC=C(CO)CC21 (stereo partly drawn) [(R)-3-(1,1-Dimethyl-heptyl)-9-hydroxymethyl-6,6-dimethyl-6a,7,10,10a-tetrahydro-6H-benzo[c]chromen-1-ol]	2.32
Cc1c(C(=O)NN2CCCCC2)nn(-c2ccc(Cl)cc2Cl)c1-c1ccc(Cl)cc1 [SR141716]	89.3
CCCCC/C=C\C/C=C\C/C=C\C/C=C\CCCC(=O)NC(C)CO (configuration not stated)	166
